Data reported in ChEMBL document CHEMBL3864158, “Syntheses, cytotoxic activity evaluation and HQSAR study of 1,2,3-triazole-linked isosteviol derivatives as potential anticancer agents” (Bioorg Med Chem Lett, 2016).

What was measured:
[1] = Cytotoxicity against human JeKo1 cells assessed as decrease in cell proliferation after 72 hrs by MTT assay; type: functional, cell-based; conditions: JeKo-1, 72 h
[2] = Cytotoxicity against human HCT116 cells assessed as decrease in cell proliferation after 72 hrs by MTT assay; type: functional, cell-based; conditions: HCT-116, 72 h

Compound `CCOC(=O)[C@]1(C)CCC[C@@]2(C)[C@@H]3CC[C@@]4(C)C[C@]3(CC[C@@H]21)[C@H](Cn1cc(-c2ccccc2)nn1)[C@H]4O` has an IC50 [1] of 18.8 µM and an IC50 [2] of 8.57 µM.

`CCOC(=O)[C@]1(C)CCC[C@@]2(C)[C@@H]3CC[C@@]4(C)C[C@]3(CC[C@@H]21)[C@H](Cn1cc(COc2cccc(C=O)c2)nn1)[C@H]4O` showed an IC50 [1] of 15.6 µM and an IC50 [2] of 4.64 µM.

`CCOC(=O)[C@]1(C)CCC[C@@]2(C)[C@@H]3CC[C@@]4(C)C[C@]3(CC[C@@H]21)C[C@@H]4n1cc(COc2ccc(C=O)cc2OC)nn1` showed an IC50 [1] of 10.9 µM and an IC50 [2] of 7.18 µM.

Work on `CCOC(=O)[C@]1(C)CCC[C@@]2(C)[C@@H]3CC[C@@]4(C)C[C@]3(CC[C@@H]21)C[C@@H]4n1cc(COc2ccc(C(=O)O)cc2)nn1` yielded an IC50 [1] of 54.4 µM and an IC50 [2] of 11.8 µM.

`CCOC(=O)[C@]1(C)CCC[C@@]2(C)[C@@H]3CC[C@@]4(C)C[C@]3(CC[C@@H]21)[C@H](Cn1cc(COc2ccc(C(C)=O)cc2)nn1)[C@H]4O` showed an IC50 [1] of 19.6 µM and an IC50 [2] of 8.15 µM.

`CCOC(=O)[C@]1(C)CCC[C@@]2(C)[C@@H]3CC[C@@]4(C)C[C@]3(CC[C@@H]21)C[C@@H]4n1cc(-c2ccccc2)nn1` showed an IC50 [1] of 95.9 µM and an IC50 [2] of 48.4 µM.

Work on `CCOC(=O)[C@]1(C)CCC[C@@]2(C)[C@@H]3CC[C@@]4(C)C[C@]3(CC[C@@H]21)[C@H](Cn1cc(COc2ccccc2C=O)nn1)[C@H]4O` yielded an IC50 [1] of 12.7 µM and an IC50 [2] of 2.99 µM.

Work on `CCOC(=O)[C@]1(C)CCC[C@@]2(C)[C@@H]3CC[C@@]4(C)C[C@]3(CC[C@@H]21)[C@H](Cn1cc(COc2ccc(C=O)cc2)nn1)[C@H]4O` yielded an IC50 [1] of 16.4 µM and an IC50 [2] of 6.62 µM.

Work on `CCOC(=O)[C@]1(C)CCC[C@@]2(C)[C@@H]3CC[C@@]4(C)C[C@]3(CC[C@@H]21)C[C@@H]4n1cc(COc2cccc(C=O)c2)nn1` yielded an IC50 [1] of 9.5 µM and an IC50 [2] of 6.5 µM.

`CCOC(=O)[C@]1(C)CCC[C@@]2(C)[C@@H]3CC[C@@]4(C)C[C@]3(CC[C@@H]21)C[C@@H]4n1cc(COc2ccc(C=O)cc2)nn1` showed an IC50 [1] of 11.7 µM and an IC50 [2] of 8.2 µM.

With `CCOC(=O)[C@]1(C)CCC[C@@]2(C)[C@@H]3CC[C@@]4(C)C[C@]3(CC[C@@H]21)C[C@@H]4n1cc(COc2ccc(C(C)=O)cc2)nn1` the IC50 [1] was 13.9 µM and the IC50 [2] was 9.62 µM.

`CCOC(=O)[C@]1(C)CCC[C@@]2(C)[C@@H]3CC[C@@]4(C)C[C@]3(CC[C@@H]21)C[C@H]4OS(=O)(=O)c1ccc(C)cc1` gave an IC50 [1] of 9.75 µM and an IC50 [2] of 51.4 µM.

Work on `CCOC(=O)[C@]1(C)CCC[C@@]2(C)[C@@H]3CC[C@@]4(C)C[C@]3(CC[C@@H]21)[C@H](CN=[N+]=[N-])[C@H]4O` yielded an IC50 [1] of 31.2 µM and an IC50 [2] of 14.8 µM.

Compound `CC(=O)O[C@@H]1O[C@H](n2cc(COC(=O)[C@]3(C)CCC[C@@]4(C)[C@H]5CC[C@@]6(C)C[C@]5(CC[C@@H]43)CC6=O)nn2)[C@@H](OC(C)=O)[C@@H](OC(C)=O)[C@H]1OC(C)=O` has an IC50 [1] of 26.3 µM and an IC50 [2] of 19.3 µM.

Compound `CCOC(=O)[C@]1(C)CCC[C@@]2(C)[C@@H]3CC[C@@]4(C)C[C@]3(CC[C@@H]21)C[C@@H]4n1cc(COc2ccccc2C=O)nn1` has an IC50 [1] of 12.2 µM and an IC50 [2] of 3.8 µM.

Work on `C#CCOC(=O)[C@]1(C)CCC[C@@]2(C)[C@@H]3CC[C@@]4(C)C[C@]3(CC[C@@H]21)CC4=O` yielded an IC50 [1] of 24.7 µM and an IC50 [2] of 27.1 µM.

Compound `CCOC(=O)[C@]1(C)CCC[C@@]2(C)[C@@H]3CC[C@@]4(C)C[C@]3(CC[C@@H]21)C[C@@H]4N=[N+]=[N-]` has an IC50 [1] of 55.2 µM and an IC50 [2] of 46.1 µM.

In the case of `CCOC(=O)[C@]1(C)CCC[C@@]2(C)[C@@H]3CC[C@@]4(C)C[C@]3(CC[C@@H]21)[C@H](Cn1cc(CO)nn1)[C@H]4O`, the IC50 [1] is reported as 32.3 µM and the IC50 [2] is reported as 19.6 µM.

`CCOC(=O)[C@]1(C)CCC[C@@]2(C)[C@@H]3CC[C@@]4(C)C[C@]3(CC[C@@H]21)[C@H](Cn1cc(COc2ccc(C=O)cc2OC)nn1)[C@H]4O` gave an IC50 [1] of 7.09 µM and an IC50 [2] of 4.04 µM.

With `CCOC(=O)[C@]1(C)CCC[C@@]2(C)[C@@H]3CC[C@@]4(C)C[C@]3(CC[C@@H]21)C[C@H]4n1cc(COC(=O)[C@]2(C)CCC[C@@]3(C)[C@@H]4CC[C@@]5(C)C[C@]4(CC[C@@H]32)CC5=O)nn1` the IC50 [1] was 15.3 µM and the IC50 [2] was 126 µM.

Compound `C[C@@]12CC[C@@H]3[C@@](CC[C@H]4[C@@]3(C)CCC[C@@]4(C)C(=O)O)(CC1=O)C2` [ISOSTEVIOL] has an IC50 [1] of over 150 µM and an IC50 [2] of over 150 µM.
